Test results from patent US20150150842A1, “DESETHYLAMIODARONE COMPOSITIONS” (priority 2012, published 2015).
Where “and” joins values, the source holds several entries; their conditions need not be identical. Identical values can stand only once.

What was measured:
rats = assay: Chronic 28-day non-GLP toxicology in rats
[1] = Plasma and tissue DEA and AMIO levels in non-instrumented dogs; details: 4-week oral AMIO 45 mg/kg/day, individual dogs 1 and 2
[2] = system: conscious dogs with structural atrial remodelling; assay: Chronic rapid atrial pacing induced atrial remodelling and burst-induced atrial fibrillation in conscious dogs
Description: The experiments were performed on chronically instrumented Beagle dogs of both sexes, weighing 12-13 kg. The animals were subjected to the following surgery under general anaesthesia: pacemakers were implanted into bilateral subcutaneous pockets in the neck area (Logos, Karios; Biotronik Hungaria Ltd.) and were attached to pacemaker electrodes implanted into the right ventricle and right atrium. Radiofrequency catheter ablation was performed in each animal to achieve third degree atrioventricular (AV) block so that during subsequent rapid atrial pacing (400/min) the ventricles are protected from high heart rates. […] On the seventh day after surgery, following the measurement of right atrial effective refractory period the atrial pacemaker was set to a frequency of 400/min to achieve atrial electrical and structural remodelling. Right atrial rapid pacing is necessary to maintain for 3 months in this model to obtain complete remodeling of the atria signalled by the reduction of right atrial effective refractory period below 80 ms.
(§1) The body weight of animals was monitored for strict adherence to the desired dose.
(§2) The right atrial effective refractory period (ERP) was measured using the S1 -S2 protocol at cycle lengths of 150 and 300 ms. In addition ERP monitoring, 10-second long burst stimuli were applied at 800/min frequency to induce atrial fibrillation and the incidence of AF, the duration of AF episodes were measured before commencement of oral drug therapy and then after the initiation of therapy every 4 days.

conscious rats = system: conscious rats
Description: The present experiments were performed on male, Sprague-Dawley CFY rats weighing 260-300 g. During a preliminary open-chest surgery we applied a loose silk loop around the left main coronary artery, and then the chest was closed (Leprán et al., 1983). Seven-eight days after the preliminary surgery—after complete recovery and healing—the loose silk loop was tightened to occlude the coronary artery in conscious, freely moving animals. During the first 15 min of myocardial infarction a bipolar ECG was recorded continuously (PowerLab 8SP, ADInstruments, Great Britain).
We followed the survival rate during the acute phase (first 15 min) and during the subsequent 16 hours after coronary artery occlusion. The incidence and duration of arrhythmias in the acute phase were evaluated according to the Lambeth Conventions (Walker et al., 1988), i.e. ventricular fibrillation, ventricular tachycardia, and other types of arrhythmias, including ventricular extrasystoles, bigeminy, and salvos. The size of myocardial infarction was measured in the animals surviving for 16 hours after coronary artery occlusion using nitrotetrazolium-blue dye staining.
Long-term oral pretreatment was applied for 1 month before the coronary artery occlusion. […] Control animals were given the vehicle in a volume of 5 ml/kg.

[3] = Cardiac, liver and lung tissue DEA and AMIO levels in dogs with atrial fibrillation and structural atrial remodelling; details: for concentration at 4 weeks: both, Beagle, dog, oral, 50 mg/kg/day
Description: as §1, §2
Cardiac tissue drug levels were measured in right atrial, left atrial, right ventricular and left ventricular tissue samples. Following the sacrifice of the animals (the subsequent day after the 4-week treatment), tissue samples were taken before tissue preparations were isolated for in vitro studies.

[4] = system: dog atrial and ventricular tissue; assay: Atrial and ventricular action potential parameters after chronic oral treatment of non-instrumented dogs; assay type: in vivo, Beagle dogs; details: 500 ms cycle length, 4-week oral DEA 30 or AMIO 45 mg/kg/day
[5] = dogs with AF, 4-week oral AMIO 50 mg/kg/day
[6] = dogs with structural atrial remodelling, 4-week oral AMIO 50 mg/kg/day

SMILES: CCCCc1oc2ccccc2c1C(=O)c1cc(I)c(OCCN(CC)CC)c(I)c1 [AMIO, amiodarone]
- Hepatic function alterations (total cholesterol, alkaline phosphatase [ALP]) (rats; 28-day oral AMIO 200 mg/kg/day compared to DEA 100 mg/kg/day): more robust
- Alveolar histiocytosis in the lungs (rats; 28-day oral AMIO 200 mg/kg/day or DEA 100 mg/kg/day): alveolar histiocytosis was detected
- Detection of the administered drug 14 days after the completion of administration (rats; 28-day oral AMIO 200 mg/kg/day or DEA 100 mg/kg/day, plasma (DEA: plasma or cardiac tissue)): could be detected in plasma samples
- Increase in body weight following 28-day treatment (rats; AMIO 200 mg/kg/day or DEA 100 mg/kg/day, normal increase 44 g): 13 g
- Food consumption and appetite (rats; first 3 weeks of 200 mg/kg/day AMIO, compared to control and 100 mg/kg/day DEA treated animals): reduced
- Kidney AMIO level [1]: 112.173 μg/tissue g
- Left Ventricle AMIO level [1]: 81.928 μg/tissue g
- Liver AMIO level [1]: 177.317 μg/tissue g
- Lung AMIO level [1]: 178.360 μg/tissue g
- Right Atrium AMIO level [1]: 75.854 μg/tissue g and 152.023 μg/tissue g
- Mood, behaviour, appetite and body weight ([2]; dogs, 4-week oral, DEA 25, AMIO 50 mg/kg/day): loss of appetite followed by a reduction in body weight
- Lg AF duration, Following 4-week treatment, individual animals ([2]; oral AMIO 50 mg/kg/day, Control (before) 2.59, 3.12, 4.35): 1.35 and 0.88 and 0.12
- AF duration (s), Following 4-week treatment, individual animals ([2]; oral AMIO 50 mg/kg/day, Control (before) 386.5, 1 302.9, 2 2663.7): 22.5 s and 7.5 s and 1.31 s
- ERP, Following 4-week treatment, individual animals ([2]; oral AMIO 50 mg/kg/day, animals 2011/01, 2011/08, 2011/9, Control (before) 90, <80, 80): 100 ms (2×) and 130 ms
- Incidence of AF, Following 4-week treatment, individual animals ([2]; oral AMIO 50 mg/kg/day, burst-induced AF, Control (before) 100%, 90%, 67%): 40% and 10% (2×)
- Lg AF duration, Following 4-week treatment, Mean ± SE ([2]; oral AMIO 50 mg/kg/day, n=3, Control (before) 3.35 ± 0.52): 0.78 ± 0.36
- Incidence of AF, Following 4-week treatment, Mean ± SE ([2]; oral AMIO 50 mg/kg/day, n=3, Control (before) 88.0 ± 10.54): 20.0 ± 10.0 %
- AF duration (s), Following 4-week treatment, Mean ± SE ([2]; oral AMIO 50 mg/kg/day, n=3, Control (before) 8117.7 ± 7277.8): 10.4 ± 6.29 s
- Incidence and duration of atrial fibrillation ([2]; three animals, 4-week oral treatment, DEA 25, AMIO 50 mg/kg/day, accompanied by prolongation of the ERP): showed a decreasing tendency
- Death due to the 1 month treatment (conscious rats; 1 month oral pretreatment): No death occurred
- Survival rate during the acute phase of experimental myocardial infarction (conscious rats; 1 month oral pretreatment): significantly improved
- Behavioral changes, body weight increments (conscious rats; 1 month oral pretreatment, AMIO 30 or 100, DEA 15 or 50 mg/kg/day): Neither AMIO nor DEA produced any behavioral changes of the animals, or in body weight increments
- Arrhythmia score (conscious rats; first 15 min after coronary artery occlusion, 1 month oral AMIO 100 or DEA 50 mg/kg/day, control 4.77±0.33): 2.05±0.52
- Incidence of ventricular fibrillation (conscious rats; larger doses (AMIO 100, DEA 50 mg/kg/day), after coronary artery occlusion): significantly decreased
- Liver and lung tissue concentrations of DEA in chronic AMIO treated dogs compared to chronic DEA treated dogs ([3]; AF model dogs, oral AMIO 50 mg/kg/day vs DEA 25 mg/kg/day): more than three times higher
- concentration at 4 weeks ([3]; left atrium, Left atrium AMIO level, Mean, dogs with AF, 4-week oral AMIO 50 mg/kg/day, n=3): 35200 ng/g
- concentration at 4 weeks ([3]; left atrium, Left atrium AMIO level, individual animals, dogs with AF, 4-week oral AMIO 50 mg/kg/day): 32600 ng/g
- concentration at 4 weeks ([3]; left ventricle, Left ventricle AMIO level, Mean, dogs with AF, 4-week oral AMIO 50 mg/kg/day, n=3): 34400 ng/g
- concentration at 4 weeks ([3]; left ventricle, Left ventricle AMIO level, individual animals, dogs with AF, 4-week oral AMIO 50 mg/kg/day): 36600 ng/g
- concentration at 4 weeks ([3]; right atrium, Right atrium AMIO level, Mean, dogs with AF, 4-week oral AMIO 50 mg/kg/day, n=3): 24600 ng/g
- concentration at 4 weeks ([3]; right ventricle, Right ventricle AMIO level, Mean, dogs with AF, 4-week oral AMIO 50 mg/kg/day, n=3): 34700 ng/g
- concentration at 4 weeks ([3]; right ventricle, Right ventricle AMIO level, individual animals, dogs with AF, 4-week oral AMIO 50 mg/kg/day): 40800 ng/g
- Left atrium AMIO level, individual animals [3, 5]: 39.045 μg/tissue g and 33.89 μg/tissue g
- Left ventricle AMIO level, individual animals [3, 5]: 42.573 μg/tissue g and 24.061 μg/tissue g
- Right atrium AMIO level, individual animals [3, 5]: 47.005 μg/tissue g and 19.936 μg/tissue g and 6.933 μg/tissue g
- Right ventricle AMIO level, individual animals [3, 5]: 37.033 μg/tissue g and 26.349 μg/tissue g
- Liver AMIO level, Mean ± SE [3, 6]: 126.8 ± 41.58 μg/tissue g
- Liver AMIO level, individual animals [3, 6]: 123.961 μg/tissue g and 200.27 μg/tissue g and 56.314 μg/tissue g
- Lung AMIO level, Mean ± SE [3, 6]: 215.1 ± 60.12 μg/tissue g
- Lung AMIO level, individual animals [3, 6]: 312.24 μg/tissue g and 227.793 μg/tissue g and 105.152 μg/tissue g
- Vmax (V/s), Dog atrium ([4]; n = 3, CONTROL 249.7 ± 52.7): 252.9 ± 56.7 V/s
- APD90 (ms), Dog atrium ([4]; n = 4, CONTROL 123.9 ± 9.6): 140.8 ± 12.4 ms
